The NIST ThermoML archive (doi:10.1016/j.jct.2006.08.009)

Assay: mn = molality of the nth substance listed, in mol/kg
Settings: 350 kPa, Liquid; for apparent molar heat capacity: Extra sensitive DSC

OC[C@@H](O)[C@@H](O)[C@@H](O)CO [SRS-1,2,3,4,5-pentanepentol] + O
Settings | apparent molar heat capacity [J/K/mol] | mass density [kg/m3]
278.15 K, m1 = 0.0196 | 335 | 1001.15
278.15 K, m1 = 0.0506 | 329.5 | 1002.66
278.15 K, m1 = 0.1042 | 335.2 | 1005.31
278.15 K, m1 = 0.2591 | 334.4 | 1012.83
278.15 K, m1 = 0.5092 | 334.9 | 1024.77
278.15 K, m1 = 0.9969 | 336.5 | 1046.03
278.15 K, m1 = 1.998 | 336.2 | 1084.53
278.15 K, m1 = 3.177 | 339.7 | 1119.46
283.15 K, m1 = 0.0196 | 354 | 1000.8
283.15 K, m1 = 0.0506 | 343 | 1002.31
283.15 K, m1 = 0.1042 | 350.4 | 1004.94
283.15 K, m1 = 0.2591 | 349.6 | 1012.39
283.15 K, m1 = 0.5092 | 349.7 | 1024.17
283.15 K, m1 = 0.9969 | 350.6 | 1045.12
283.15 K, m1 = 1.998 | 349.4 | 1083.19
283.15 K, m1 = 3.177 | 351.5 | 1117.64
288.15 K, m1 = 0.0196 | 368 | 1000.18
288.15 K, m1 = 0.0506 | 354.3 | 1001.7
288.15 K, m1 = 0.1042 | 362 | 1004.3
288.15 K, m1 = 0.2591 | 361.4 | 1011.68
288.15 K, m1 = 0.5092 | 361.4 | 1023.3
288.15 K, m1 = 0.9969 | 361.7 | 1044.05
288.15 K, m1 = 1.998 | 359.9 | 1081.81
288.15 K, m1 = 3.177 | 361.1 | 1115.96
293.15 K, m1 = 0.0196 | 377 | –
293.15 K, m1 = 0.0506 | 365.3 | –
293.15 K, m1 = 0.1042 | 371.7 | –
293.15 K, m1 = 0.2591 | 371.2 | –
293.15 K, m1 = 0.5092 | 371 | –
293.15 K, m1 = 0.9969 | 371 | –
293.15 K, m1 = 1.998 | 368.5 | –
293.15 K, m1 = 3.177 | 369.4 | –
298.15 K, m1 = 0.0196 | 385 | 998.09
298.15 K, m1 = 0.0506 | 375.1 | 999.6
298.15 K, m1 = 0.1042 | 380.2 | 1002.18
298.15 K, m1 = 0.2591 | 379.6 | 1009.48
298.15 K, m1 = 0.5092 | 379.3 | 1020.79
298.15 K, m1 = 0.9969 | 379 | 1041.23
298.15 K, m1 = 1.998 | 376.1 | 1078.43
298.15 K, m1 = 3.177 | 376.6 | 1112.13
303.15 K, m1 = 0.0196 | 392 | –
303.15 K, m1 = 0.0506 | 383.2 | –
303.15 K, m1 = 0.1042 | 387.5 | –
303.15 K, m1 = 0.2591 | 386.8 | –
303.15 K, m1 = 0.5092 | 386.4 | –
303.15 K, m1 = 0.9969 | 385.9 | –
303.15 K, m1 = 1.998 | 382.8 | –
303.15 K, m1 = 3.177 | 383 | –
308.15 K, m1 = 0.0196 | 397 | 995.08
308.15 K, m1 = 0.0506 | 389.5 | 996.56
308.15 K, m1 = 0.1042 | 393.6 | 999.1
308.15 K, m1 = 0.2591 | 393 | 1006.35
308.15 K, m1 = 0.5092 | 392.6 | 1017.44
308.15 K, m1 = 0.9969 | 392 | 1037.61
308.15 K, m1 = 1.998 | 388.8 | 1074.35
308.15 K, m1 = 3.177 | 388.8 | 1107.66
313.15 K, m1 = 0.0196 | 403 | –
313.15 K, m1 = 0.0506 | 395.7 | –
313.15 K, m1 = 0.1042 | 399.2 | –
313.15 K, m1 = 0.2591 | 398.6 | –
313.15 K, m1 = 0.5092 | 398.2 | –
313.15 K, m1 = 0.9969 | 397.4 | –
313.15 K, m1 = 1.998 | 394.1 | –
313.15 K, m1 = 3.177 | 393.9 | –
318.15 K, m1 = 0.0196 | 408 | 991.29
318.15 K, m1 = 0.0506 | 401.1 | 992.73
318.15 K, m1 = 0.1042 | 404.3 | 995.28
318.15 K, m1 = 0.2591 | 403.7 | 1002.45
318.15 K, m1 = 0.5092 | 403.2 | 1013.36
318.15 K, m1 = 0.9969 | 402.3 | 1033.3
318.15 K, m1 = 1.998 | 398.9 | 1069.71
318.15 K, m1 = 3.177 | 398.6 | 1102.66
323.15 K, m1 = 0.0196 | 412.3 | –
323.15 K, m1 = 0.0506 | 405.8 | –
323.15 K, m1 = 0.1042 | 408.7 | –
323.15 K, m1 = 0.2591 | 408.1 | –
323.15 K, m1 = 0.5092 | 407.6 | –
323.15 K, m1 = 0.9969 | 406.7 | –
323.15 K, m1 = 1.998 | 403.3 | –
323.15 K, m1 = 3.177 | 402.8 | –
328.15 K, m1 = 0.0196 | 415.7 | 986.75
328.15 K, m1 = 0.0506 | 409.7 | 988.19
328.15 K, m1 = 0.1042 | 412.7 | 990.72
328.15 K, m1 = 0.2591 | 412.2 | 997.84
328.15 K, m1 = 0.5092 | 411.6 | 1008.63
328.15 K, m1 = 0.9969 | 410.7 | 1028.38
328.15 K, m1 = 1.998 | 407.3 | 1064.46
328.15 K, m1 = 3.177 | 406.7 | 1097.15
333.15 K, m1 = 0.0196 | 419.1 | –
333.15 K, m1 = 0.0506 | 413.4 | –
333.15 K, m1 = 0.1042 | 416.3 | –
333.15 K, m1 = 0.2591 | 415.8 | –
333.15 K, m1 = 0.5092 | 415.3 | –
333.15 K, m1 = 0.9969 | 414.3 | –
333.15 K, m1 = 1.998 | 410.9 | –
333.15 K, m1 = 3.177 | 410.3 | –
338.15 K, m1 = 0.0196 | 422.2 | 981.58
338.15 K, m1 = 0.0506 | 416.9 | 983.05
338.15 K, m1 = 0.1042 | 419.6 | 985.54
338.15 K, m1 = 0.2591 | 419.2 | 992.64
338.15 K, m1 = 0.5092 | 418.6 | 1003.33
338.15 K, m1 = 0.9969 | 417.6 | 1022.96
338.15 K, m1 = 1.998 | 414.3 | 1058.79
338.15 K, m1 = 3.177 | 413.6 | 1091.26
343.15 K, m1 = 0.0196 | 424.8 | –
343.15 K, m1 = 0.0506 | 420 | –
343.15 K, m1 = 0.1042 | 422.7 | –
343.15 K, m1 = 0.2591 | 422.2 | –
343.15 K, m1 = 0.5092 | 421.6 | –
343.15 K, m1 = 0.9969 | 420.6 | –
343.15 K, m1 = 1.998 | 417.3 | –
343.15 K, m1 = 3.177 | 416.5 | –
348.15 K, m1 = 0.0196 | 427.6 | 975.89
348.15 K, m1 = 0.0506 | 422.8 | 977.36
348.15 K, m1 = 0.1042 | 425.4 | 979.79
348.15 K, m1 = 0.2591 | 424.9 | 986.84
348.15 K, m1 = 0.5092 | 424.3 | 997.49
348.15 K, m1 = 0.9969 | 423.3 | 1017.01
348.15 K, m1 = 1.998 | 420.1 | 1052.65
348.15 K, m1 = 3.177 | 419.3 | 1084.97
353.15 K, m1 = 0.0196 | 429.6 | –
353.15 K, m1 = 0.0506 | 424.8 | –
353.15 K, m1 = 0.1042 | 427.8 | –
353.15 K, m1 = 0.2591 | 427.3 | –
353.15 K, m1 = 0.5092 | 426.7 | –
353.15 K, m1 = 0.9969 | 425.7 | –
353.15 K, m1 = 1.998 | 422.6 | –
353.15 K, m1 = 3.177 | 421.8 | –
358.15 K, m1 = 0.0196 | 431.8 | 969.65
358.15 K, m1 = 0.0506 | 426.7 | 971.12
358.15 K, m1 = 0.1042 | 430.1 | 973.52
358.15 K, m1 = 0.2591 | 429.5 | 980.54
358.15 K, m1 = 0.5092 | 428.9 | 991.18
358.15 K, m1 = 0.9969 | 427.9 | 1010.61
358.15 K, m1 = 1.998 | 424.9 | 1046.1
358.15 K, m1 = 3.177 | 424 | 1078.29
363.15 K, m1 = 0.0196 | 433.8 | –
363.15 K, m1 = 0.0506 | 427.7 | –
363.15 K, m1 = 0.1042 | 431.7 | –
363.15 K, m1 = 0.2591 | 431.2 | –
363.15 K, m1 = 0.5092 | 430.7 | –
363.15 K, m1 = 0.9969 | 429.8 | –
363.15 K, m1 = 1.998 | 426.9 | –
363.15 K, m1 = 3.177 | 425.9 | –
368.15 K, m1 = 0.0196 | – | 962.93
368.15 K, m1 = 0.0506 | – | 964.44
368.15 K, m1 = 0.1042 | – | 966.8
368.15 K, m1 = 0.2591 | – | 973.76
368.15 K, m1 = 0.5092 | – | 984.4
368.15 K, m1 = 0.9969 | – | 1003.76
368.15 K, m1 = 1.998 | – | 1039.13
368.15 K, m1 = 3.177 | – | 1071.22
